9 compounds from US9650340B2, “5-fluoro-N-(pyridin-2-yl)pyridin-2-amine derivatives containing a sulfoximine group” (BAYER PHARMA AKTIENGESELLSCHAFT, priority 2012, dated 2017) can be followed below.

Series [1] can be described thus: Equilibrium shake flask solubility assay, thermodynamic solubility in citrate buffer pH 4. It counts as physicochemical. As to conditions: citrate buffer, pH 4, aqueous buffer, thermodynamic from solid, citrate buffer pH 4, 24 h, room temperature; read-out: Solubility in aqueous Citrate buffer pH4. As to the method: 4b) Thermodynamic Solubility in Citrate Buffer pH 4
Thermodynamic solubility was determined by an equilibrium shake flask method [Literature: Edward H. Kerns and Li Di (2008) Solubility Methods in: Drug-like Properties: Concepts, Structure Design and Methods, p276-286. Burlington, Mass.: Academic Press].
A saturated solution of the drug was prepared and the solution was mixed for 24 h to ensure that equilibrium has been reached. The solution was centrifuged to remove the insoluble fraction and the concentration of the compound in solution was determined using a standard calibration curve.
To prepare the sample, 1.5 mg solid compound was weighed in a 4 ml glass vial. 1 ml Citrate buffer pH 4 was added. The suspension was put on a stirrer and mixed for 24 hrs at room temperature. The solution was centrifuged afterwards. To prepare the sample for the standard calibration, 0.6 mg solid sample was dissolved in 19 ml acetonitrile/water 1:1. After sonification the solution was filled up with acetonitrile/water 1:1 to 20 ml.
Sample and standards were quantified by HPLC with UV-detection. For each sample two injection volumes (5 and 50 μl) in triplicates were made. Three injection volumes (5 μl, 10 μl and 20 μl) were made for the standard.
The areas of sample- and standard injections as well as the calculation of the solubility value (in mg/l) were determined by using HPLC software (Waters Empower 2 FR).

For series [2], the system named is DU 145, hormone-independent human prostate carcinoma cells. As to the kind of experiment: Proliferation assay, DU145 (crystal violet). It counts as cell-based. As to conditions: Homo sapiens, DU-145, 96 h, DU145, 4 days; read-out: Inhibition of DU145 cell proliferation IC50. The protocol: (§1) Cultivated tumour cells (HeLa, human cervical tumour cells, ATCC CCL-2; NCI-H460, human non-small cell lung carcinoma cells, ATCC HTB-177; A2780, human ovarian carcinoma cells, ECACC #93112519; DU 145, hormone-independent human prostate carcinoma cells, ATCC HTB-81; HeLa-MaTu-ADR, multidrug-resistant human cervical carcinoma cells, EPO-GmbH Berlin; Caco-2, human colorectal carcinoma cells, ATCC HTB-37; B16F10, mouse melanoma cells, ATCC CRL-6475) were plated at a density of 5,000 cells/well (DU145, HeLa-MaTu-ADR), 3,000 cells/well (NCI-H460, HeLa), 2,500 cells/well (A2780), 1,500 cells/well (Caco-2), or 1,000 cells/well (B16F10) in a 96-well multititer plate in 200 μL of their respective growth medium supplemented 10% fetal calf serum. After 24 hours, the cells of one plate (zero-point plate) were stained with crystal violet (see below), while the medium of the other plates was replaced by fresh culture medium (200 μl), to which the test substances were added in various concentrations (0 μM, as well as in the range of 0.001-10 μM; the final concentration of the solvent dimethyl sulfoxide was 0.5%). The cells were incubated for 4 days in the presence of test substances. Cell proliferation was determined by staining the cells with crystal violet: the cells were fixed by adding 20 μl/measuring point of an 11% glutaric aldehyde solution for 15 minutes at room temperature. After three washing cycles of the fixed cells with water, the plates were dried at room temperature. The cells were stained by adding 100 μl/measuring point of a 0.1% crystal violet solution (pH 3.0). After three washing cycles of the stained cells with water, the plates were dried at room temperature. The dye was dissolved by adding 100 μl/measuring point of a 10% acetic acid solution. The extinction was determined by photometry at a wavelength of 595 nm. The change of cell number, in percent, was calculated by normalization of the measured values to the extinction values of the zero-point plate (=0%) and the extinction of the untreated (0 μm) cells (=100%). The IC50 values (inhibitory concentration at 50% of maximal effect) were determined by means of a 4 parameter fit. Non-adherent MOLM-13 human acute myeloid leukemia cells (DSMZ ACC 554) were seeded at a density of 5,000 cells/well in a 96-well multititer plate in 100 μL of growth medium supplemented 10% fetal calf serum. After 24 hours, cell viability of one plate (zero-point plate) was determined with the Cell Titre-Glo Luminescent Cell Viability Assay (Promega), while 50 μL of test compound containing medium was added to the wells of the other plates (final concentrations in the range of 0.001-10 μM and DMSO controls; the final concentration of the solvent dimethyl sulfoxide was 0.5%). Cell viability was assessed after 72-hour exposure with the Cell Titre-Glo Luminescent Cell Viability Assay (Promega).

Series [3] deals with HeLa, human cervical tumour cells. Description: Proliferation assay, HeLa (crystal violet). It counts as cell-based. As to conditions: Homo sapiens, 96 h, 4 days, read-out: Inhibition of HeLa cell proliferation IC50. The protocol: as §1
Series [4] deals with HeLa-MaTu-ADR, multidrug-resistant human cervical carcinoma cells. As to the kind of experiment: Proliferation assay, HeLa-MaTu-ADR (crystal violet). It counts as cell-based. Particulars: Homo sapiens, 96 h, 4 days, read-out: Inhibition of HeLa-MaTu-ADR cell proliferation IC50. The protocol: as §1
The test system of series [5] is NCI-H460, human non-small cell lung carcinoma cells. As to the kind of experiment: Proliferation assay, NCI-H460 (crystal violet). It counts as cell-based. Particulars: Homo sapiens, NCI-H460, 96 h, NCI-H460, 4 days; read-out: Inhibition of NCI-H460 cell proliferation IC50. The protocol:
as §1

The subject of series [6] is B16F10, mouse melanoma cells. Description: Proliferation assay, B16F10 (crystal violet). As to conditions: Mus musculus, B16-F10, 96 h, B16F10, 4 days; read-out: Inhibition of B16F10 cell proliferation IC50. It counts as cell-based. As to the method: as §1
Series [7] has as its system MOLM-13 human acute myeloid leukemia cells. As to the kind of experiment: Proliferation assay, MOLM-13 (Cell Titre-Glo). It counts as cell-based. Particulars: Homo sapiens, MOLM-13, 72 h, MOLM-13, 72-hour exposure; read-out: Inhibition of MOLM-13 cell proliferation IC50. As to the method:
as §1

Series [8] deals with Caco-2, human colorectal carcinoma cells. As to the kind of experiment: Proliferation assay, Caco-2 (crystal violet). It counts as cell-based. Particulars: Homo sapiens, Caco-2, 96 h, Caco-2, 4 days; read-out: Inhibition of Caco-2 cell proliferation IC50. As to the method: as §1
Series [9] has as its system A2780, human ovarian carcinoma cells. Description: Proliferation assay, A2780 (crystal violet). It counts as cell-based. Particulars: Homo sapiens, A2780, 96 h, A2780, 4 days; read-out: Inhibition of A2780 cell proliferation IC50. As to the method:
as §1

pIC50: −log10 of the molar value. ≈ marks a conversion by molar mass, not a printed value.

Consider `COc1cc(F)ccc1-c1cc(Nc2cc(CS(C)(=N)=O)ccn2)ncc1F` (racemic) [Example 1, (rac)-5-Fluoro-4-(4-fluoro-2-methoxyphenyl)-N-{4-[(S-methylsulfonimidoyl)methyl]pyridin-2-yl}pyridin-2-amine], for which the solubility (commonly the concentration that dissolves in the medium under given conditions) at 24 h in series [1] turned out to be 489 µg/mL (≈ 1210 µM). Further, the pIC50 was 7.43 in series [2]; 7.02 in series [3]; 7.21 in series [4]; 7.21 in series [5]; 6.96 in series [6]; 7.72 in series [7]. For the same compound, the pIC50 in series [8] was 7.35; in [9], 7.59.
Turning to `COc1cc(F)ccc1-c1cc(Nc2cc(CS(C)(=N)=O)cc(C)n2)ncc1F` (racemic) [Example 4, (rac)-5-Fluoro-4-(4-fluoro-2-methoxyphenyl)-N-{6-methyl-4-[(S-methylsulfonimidoyl)methyl]pyridin-2-yl}pyridin-2-amine], the solubility at 24 h in series [1] worked out at 470 µg/mL (≈ 1120 µM). Further, the pIC50 in series [2] was 7.17; in series [3], 7.46; in series [4] it was 7.47; in series [5] it was 7.01; in series [6] it was 7.00; in series [7], 7.46. Moreover, the values for the pIC50 in [8] and in series [9] were 7.17 and 7.43, respectively.
For the compound `COc1cc(F)ccc1-c1cc(Nc2cc(CS(=N)(=O)CCO)ccn2)ncc1F` (racemic) [Example 8, (rac)-2-{S-[(2-{[5-Fluoro-4-(4-fluoro-2-methoxyphenyl)pyridin-2-yl]amino}pyridin-4-yl)methyl]sulfonimidoyl}ethanol], the solubility at 24 h in series [1] amounted to 730 µg/mL (≈ 1680 µM). Moreover, the pIC50 in series [2] was 6.96; in [3] it was 6.85; in series [4], 6.70; in [5], 6.54; in [6] it was 6.73; in series [7], 7.26. Besides, the pIC50 in series [8] is 6.80; in series [9], 7.35.
On to `COc1cc(F)ccc1-c1cc(Nc2cc(CS(=N)(=O)CCN)ccn2)ncc1F` (racemic) [Example 9, (rac)-N-(4-{[S-(2-Aminoethyl)sulfonimidoyl]methyl}pyridin-2-yl)-5-fluoro-4-(4-fluoro-2-methoxyphenyl)pyridin-2-amine], for which the solubility at 24 h in [1] was 660 µg/mL (≈ 1520 µM). For the same compound, the pIC50 in series [3] was 6.39; in [7] it was 6.92; in series [9] it was 6.68.
As for `CCOC(=O)N=S(C)(=O)Cc1ccnc(Nc2cc(-c3ccc(F)cc3OC)c(F)cn2)c1` (racemic) [Example 11, (rac)-Ethyl{[(2-{[5-fluoro-4-(4-fluoro-2-methoxyphenyl)pyridin-2-yl]amino}pyridin-4-yl)methyl](methyl)oxido-λ^6-sulfanylidene}carbamate], the solubility at 24 h in [1] worked out at 185 µg/mL (≈ 388 µM). The pIC50 in series [2] was 6.96; in series [3] it was 7.14; in [4] it was 7.00; in series [5], 6.96; in [6], 6.74; in series [7], 7.38. The pIC50 in series [8] was 6.96; in series [9] it was 7.64.
Take `CCNC(=O)N=S(C)(=O)Cc1ccnc(Nc2cc(-c3ccc(F)cc3OC)c(F)cn2)c1` (racemic) [Example 12, (rac)-1-Ethyl-3-{[(2-{[5-fluoro-4-(4-fluoro-2-methoxyphenyl)pyridin-2-yl]amino}pyridin-4-yl)methyl](methyl)oxido-λ^6-sulfanylidene}urea]: the solubility at 24 h in series [1] worked out at 34 µg/mL (≈ 71.5 µM). For the same compound, the pIC50 is 7.11 in [2]; 7.47 in [3]; 7.00 in series [4]; 7.00 in series [5]; 6.89 in series [6]; 7.54 in series [7]. Moreover, the pIC50 in series [8] was 7.01; in [9], 7.59.
Consider `COc1cc(F)ccc1-c1cc(Nc2cc(CS(C)(=N)=O)cc(F)n2)ncc1F` (racemic) [Example 17, (rac)-5-Fluoro-4-(4-fluoro-2-methoxyphenyl)-N-{6-fluoro-4-[(S-methylsulfonimidoyl)methyl]pyridin-2-yl}pyridin-2-amine], for which the solubility at 24 h in series [1] worked out at 3 µg/mL (≈ 7.1 µM). The pIC50 in series [2] is 7.32; in [3], 7.34; in series [4], 7.48; in [5], 7.35; in series [6], 7.17; in [7] it was 7.70. Besides, the pIC50 in series [8] was 7.24; in series [9] it was 7.85.
As for `COc1cc(F)ccc1-c1cc(Nc2cc(CS(C)(=O)=NC#N)ccn2)ncc1F` (single isomer, unassigned) [Example 10, {[(2-{[5-Fluoro-4-(4-fluoro-2-methoxyphenyl)pyridin-2-yl]amino}pyridin-4-yl)methyl](methyl)oxido-λ^6-sulfanylidene}cyanamide], the solubility at 24 h in [1] came to 102 µg/mL (≈ 238 µM). In addition, the pIC50 is 7.47 in series [2]; 7.51 in series [3]; 7.49 in [4]; 7.41 in series [5]; 7.20 in [6]; 7.92 in series [7]. Also, the pIC50 was 7.42 in series [8] and 8.00 in series [9].
With `COc1cc(F)ccc1-c1cc(Nc2cc(CS(C)(=N)=O)cc(C(F)(F)F)n2)ncc1F` (single isomer, unassigned; (+)) [Example 22, (+)-5-Fluoro-4-(4-fluoro-2-methoxyphenyl)-N-{4-[(S-methylsulfonimidoyl)methyl]-6-(trifluoromethyl)pyridin-2-yl}pyridin-2-amine], the solubility at 24 h in series [1] came out at 52 µg/mL (≈ 110 µM). In addition, the pIC50 is 7.49 in series [2]; 7.52 in series [3]; 7.52 in [4]; 7.47 in series [5]; 7.29 in series [6]; 8.00 in [7]. For the same compound, the pIC50 in series [8] is 7.42; in series [9], 7.92.
